Experimental data as given in patent publication US5171851A, “Imidazole substituted benzoxazine or benzothiazine derivatives” (Dong-A Pharm. Co., Ltd., priority 1990, dated 1992).
Where two headings read alike, the source gives them in different places.

Assays:
[1] = system: blood perfused papillary muscle preparation; experiment: contractile power on blood perfused papillary muscle preparation; set-up: species or system dog; settings: Canis lupus familiaris, read-out: change of contractivity (%); for activation at 0.001 mg: dose 1.0 ug; for activation at 0.01 mg: dose 10.0 ug
Procedure: Determination of contractile power on blood perfused papillary muscle preparation:
Dogs of either sex weighing 7-12 kg were anesthetized with sodium pentobarbital (30 mg/kg, i.v.). Heparin of 1000 unit/kg was administered to each animal intravenously. The animals were exsanguinated and heart was removed. The preparation was perfused through the cannulated anterior septal artery (ASA) with arterial blood from a donor dog at constant pressure of about […]. Donor dogs were anesthetized with sodium pentobarbital (30 mg/kg, i.v.). Heparin of 1000 units/kg was administered intravenously. The papillary muscle was stimulated with rectangular pulses of 5- ms duration and about 1.5 times the threshold voltage at a rate of 120 stimuli/min through bipolar electrodes. Resting tension was made to 2 g. The developed tension of papillary muscle was determined by Isometric tresducer. Detailed method was reporated by Matsumoto in Am J. Physiol. 218, 1459-1463 (1970). Test compound at the doses of 10-30 ul was injected in flowing blood in the gum tube connected to catheter. The inotropic effect of the test compounds was shown by change percent of developed tension compared with that prior to the administration of the test compounds.

[2] = system: blood-perfused sino-atrial preparation; experiment: sinus rate on blood-perfused sino-atrial preparation; set-up: species or system dog; settings: for activation at 0.003 mg: dose 3.0 ug
Procedure: Determination of sinus rate on blood-perfused sino-atrial preparation: Mongrel gods of either sex weighing 7-12 kg were anesthetized with sodium pentoba rbital (30 mg/kg i.v.). Heparin ob 1000 unit/kg was administered to each animal intravenously and the animals were exsanguinated. Heart was removed and put in Krebs-Henseleit solution. Catheter was inserted into blood vessel between right coronary artery and SA nodes. Right atrium and catheter were together removed. Blood supplied from carotid artery of donor dog of either sex weighing 15-25 kg, was supplied to blood vessel cather from right coronary artery and SA node under constant blood pressure of 100 mmHG by use of Peristaltic pump. The resting tension of right atrial muscle was made to 2g. The sinus rate triggered by spontaneous contraction of atrial muscle was determined on Narco physiograph Narcotrace 4). Detailed method was reported by S. Chiba, et al. in Japanese Pharmacology 25, 433-439(1975). Doses of test compounds were injected into flowing blood in gum tube connected to the near part of the catheter inserted into right coronary artery. The effects on sinus rate were shown as percent compared with the sinus ratio prior to the injection of the test compounds.

[3] = system: anesthetized cats; experiment: cardiotonic effect on anesthetized cats; format: in vivo, cat; settings: Felis catus; for change in vivo at 0.01 mg/kg: 0.01 mg/Kg iv; for change in vivo at 0.03 mg/kg: 0.03 mg/Kg iv; for change in vivo at 0.1 mg/kg: 0.1 mg/Kg iv
Procedure: Determination of cardiotonic effect on anesthetized cats: Male cats weighing about 3 kg were anesthetized with sodium pentobarbital (30 mg/kg, i.p.). The same anesthetic was infused intravenously at the does of 4 mg/kg/hr in order to maintain the anesthetic state and mechanically ventilated through a cuffed endotracheal tube, chest was opened by a midline incision and a catheter for measuring left ventricular pressure was inserted through apex into left ventricle and the left ventricular pressure was measured. LVdP/dt was determined by use of diffentiator from the left ventricular pressure. Systemic blood pressure was measured by the left femoral artery by a pressure transducer and heart rate was measured by a cardiotachometer triggered by blood pressure pulses. Test compound was injected into the femoral vein by use of cannule. After completion of the surgical procedures, the cats were allowed to recover about 30 minutes before drug administration. These compounds were dissolved in 0.9% physiological saline and diluted with saline. Solvent such as DMSO or DMF was also used, if necessary. Test compound of 0.1 ml/kg was used. Detailed method was reporated in J. Med. Chem. 30. 1279-87(1987).

[4] = system: Spraque-Dawley rats; experiment: acute toxicity test in Spraque-Dawley rats; settings: rat, in vivo, po, 300 mg/kg
Procedure: Acute toxicity test of 6-(4-methylimidazol-1-yl)-(4H)-3,1-benzoxazin-2-one was conducted in Spraque-Dawley rats. The test compound was suspended in 5% arabic gum and was administered orally to six rats at a dose of 300 mg/kg body weight. […] Accordingly, LD 50 of the compound is 300 mg/kg or more.

[5] = system: ICR mouse; experiment: acute toxicity test in ICR mouse; format: in vivo; settings: intravenous, 30 mg/kg, five mice
Procedure: Acute toxicity test of 6-(4-methylimidazol-1-yl)-(4H)-3,1-benzothiazin-2-one was conducted in ICR mouse. The test compound was dissolved in a mixed solvent of saline and DMF (2:1) and was administered intravenously to five mice at a dose of 30 mg/kg body weight. […] Accordingly, LD50 of the compound is 30 mg/kg or more.

[6] = system: BALB/C mice; experiment: acute toxicity test in BALB/C mice; format: in vivo, mouse; settings: oral, 200 mg/kg, five mice
Procedure: Acute toxicity test in mice:
Acute toxicity test of 6-(4-methylimidazol-1-yl)-(4H)-3,1-benzothiazine-2-thione was conducted in BALB/C mice. The test compound was suspended in 5% arabic gum solution and administered orally to five mice at a dose of 200 mg/kg body weight by gastric tubing. […] Accordingly, LD50 of the compound is 200 mg/kg or more.

[7] = Canis lupus familiaris, read-out: change of sinus rate (%)

Structure (SMILES)	activation at 0.001 mg [1]	activation at 0.01 mg [1]	change in vivo at 0.01 mg/kg ([3]; read-out: HR (%))	change in vivo at 0.01 mg/kg ([3]; read-out: LV dp/dt (%))	change in vivo at 0.01 mg/kg ([3]; read-out: LVP (%))	change in vivo at 0.01 mg/kg ([3]; read-out: SBP (%))	change in vivo at 0.01 mg/kg ([3]; read-out: dBP)	change in vivo at 0.01 mg/kg ([3]; read-out: mBP (%))	change in vivo at 0.03 mg/kg ([3]; read-out: HR (%))	change in vivo at 0.03 mg/kg ([3]; read-out: LV dp/dt (%))	change in vivo at 0.03 mg/kg ([3]; read-out: LVP (%))	change in vivo at 0.03 mg/kg ([3]; read-out: SBP (%))	change in vivo at 0.03 mg/kg ([3]; read-out: dBP)	change in vivo at 0.03 mg/kg ([3]; read-out: mBP (%))	change in vivo at 0.1 mg/kg ([3]; read-out: HR (%))	change in vivo at 0.1 mg/kg ([3]; read-out: LV dp/dt (%))	change in vivo at 0.1 mg/kg ([3]; read-out: LVP (%))	change in vivo at 0.1 mg/kg ([3]; read-out: SBP (%))	change in vivo at 0.1 mg/kg ([3]; read-out: dBP)	change in vivo at 0.1 mg/kg ([3]; read-out: mBP (%))	other results
Cc1cn(-c2ccc3c(c2)COC(=O)N3)cn1 [6-(4-methylimidazol-1-yl)(4H)-3,1-benzoxazin-2-one]	2.94%	30.4%	1.25%	29.6%	7.69%	-4.55%	-7.14%	-6%	1.88%	85.2%	23.1%	-9.12%	-10.7%	-10.2%	6.25%	113%	30.8%	-15.9%	-14.3%	-15%	activation at 0.003 mg ([1]; dose 3.0 ug): 13%; activation at 0.001 mg ([2]; Canis lupus familiaris, dose 1.0 ug, read-out: change of sinus rate (%)): 0%; activation at 0.003 mg [2, 7]: 2.52%; activation at 0.01 mg ([2]; Canis lupus familiaris, dose 10.0 ug, read-out: change of sinus rate (%)): 5.04%; change of sinus rate (%) ([2]; at the ED 30 dose): +5.17%; dead animals [4]: no dead animal was found
Cc1cn(-c2ccc3c(c2)CSC(=O)N3)cn1 [6-(4-methylimidazol-1-yl)-(4H)-3,1-benzothiazin-2-one]	0%	20.5%	0%	14.8%	0%	-4%	-8.5%	-9.1%	0.6%	33.3%	0%	-10%	-14.3%	-12.5%	4.5%	40.7%	8.2%	-14%	-20%	-17.5%	activation at 0.03 mg ([1]; dose 30.0 ug): 30.7%; activation at 0.003 mg [2, 7]: 2.3%; activation at 0.03 mg ([2]; Canis lupus familiaris, dose 30.0 ug, read-out: change of sinus rate (%)): 5.6%; dead animals [5]: no dead animal was found
Cc1cn(-c2ccc3c(c2)CSC(=S)N3)cn1 [6-(4-methylimidazol-1-yl)-(4H)-3,1-benzothiazine-2-thione]			0%	3.7%	0%	4%	4%	4%	2.1%	18.5%	0%	0%	-4%	-3%	3.6%	40.7%	1.2%	-4.7%	-14%	-10%	dead animals [6]: no dead animal was found
